Measured values taken from patent US9445998B2, “Pharmaceutical dosage forms comprising a low-solubility drug and a polymer” (Bend Research, Inc., priority 2004, dated 2016).
Like-named read-outs stand apart in the source and are kept apart here.

Tests used:
[1] = type: physicochemical; conditions: not told, 100 μgA/mL, pH 6.5
Method: An Accurel® PP 1E microporous polypropylene membrane was obtained from Membrana GmbH (Wuppertal, Germany). The membrane was washed in isopropyl alcohol and rinsed in methanol in a sonicating bath for 1 minute at ambient temperature, and then allowed to air dry at ambient temperature. The feed side of the membrane was then plasma-treated to render it hydrophilic by placing a sample of the membrane in a plasma chamber. The atmosphere of the plasma chamber was saturated with water vapor at a pressure of 550 mtorr. A plasma was then generated using radio frequency (RF) power inductively coupled into the chamber via annular electrodes at a power setting of 50 watts for 45 seconds. The contact angle of a drop of water placed on the surface of the plasma-treated membrane was less than about 40°. The contact angle of a drop of water placed on the permeate side of the same membrane was greater than about 110°.
A permeate reservoir was formed by gluing a sample of the plasma-treated membrane to a glass tube having an inside diameter of about 1 inch (2.54 cm) using an epoxy-based glue (LOCTITE® E-30CL HYSOL® from Henkel Loctite Corp, Rocky Hill, Conn.). The feed-side of the membrane was oriented so that it was on the outside of the permeate reservoir, while the permeate-side of the membrane was oriented so that it was on the inside of the reservoir. The effective membrane area of the membrane on the permeate reservoir was about 4.9 cm^2. The permeate reservoir was placed into a glass feed reservoir. The feed reservoir was equipped with a magnetic stir bar and the reservoir was placed on a stir plate and the stir rate was set to 100 rpm during the test. The apparatus was placed into a chamber maintained at 37° C. for the duration of the test. Further details of the test apparatus and protocols are presented in co-pending U.S. Patent Application Ser. No. 60/557,897, entitled “Method and Device for Evaluation of Pharmaceutical Compositions,” filed Mar. 30, 2004, incorporated herein by reference.
To form the feed solution, a 1.429 mg (0.5 mgA) sample of CC-1 was weighed into a feed reservoir. (As used herein, “mgA” is milligrams of active drug, reported as the free base, non-salt form, non-hydrate drug molecule.) To this was added 5 mL of the MFD solution previously described, consisting of PBS solution containing 7.3 mM sodium taurocholic acid and 1.4 mM of 1-palmitoyl-2-oleyl-sn-glycero-3-phosphocholine (0.5% NaTC/POPC). […] The feed solution was mixed using a vortex mixer for 1 minute. Before the membrane contacted the feed solution, 5 mL of 60 wt % decanol in decane was placed into the permeate reservoir. Time zero in the test was when the membrane was placed in contact with the feed solution. A […] aliquot of the permeate solution was collected at the times indicated. Samples were then diluted in […] IPA and analyzed using HPLC.
The maximum flux of drug across the membrane (in units of μgA/cm^2-min) was determined by performing a least-squares fit to the data in Table 4 from 0 to 60 minutes to obtain the slope (CC-1: 0.26 μgA/mL-min; Control 1A: 0.13 μgA/mL-min; Control 1B: 0.07 μgA/mL-min), multiplying the slope by the permeate volume (5 mL), and dividing by the membrane area (4.9 cm^2).

[2] = Dissolution in phosphate buffered saline at pH 6.5 (ziprasidone); type: physicochemical; conditions: PBS pH 6.5, at equilibrium; drug crystallizes as the free base form
Description: (§1) An example of a drug having a crystalline highly soluble salt form is ziprasidone. Ziprasidone hydrochloride monohydrate has a solubility of about 10 μgA/mL (expressed as the free base) in water, whereas the free base form has a solubility of less than about 0.2 μgA/mL under the same conditions. Thus, crystalline ziprasidone hydrochloride is a solubility-improved form relative to the crystalline free base form of ziprasidone.
An appropriate MFD solution is the same PBS solution wherein there is also present 7.3 mM sodium taurocholic acid and 1.4 mM of 1-palmitoyl-2-oleyl-sn-glycero-3-phosphocholine.

[3] = Microcentrifuge dissolution test in MFD solution; type: physicochemical; set-up: AUC: concentration or dose not given beside the values; conditions: for Dissolved Ziprasidone Concentration / AUC: MFD solution pH 6.5, 37° C.; for Dissolved Ziprasidone Concentration: 200 μgA/mL if all dissolved
Method: A microcentrifuge dissolution test was performed to verify that ziprasidone hydrochloride monohydrate is a solubility-improved form of ziprasidone. For this test, a sufficient amount of ziprasidone hydrochloride monohydrate was added to a microcentrifuge test tube so that the concentration of ziprasidone would have been 200 μgA/mL, if all of the ziprasidone had dissolved. The tests were run in duplicate. The tubes were placed in a 37° C. temperature-controlled chamber, and 1.8 mL MFD solution at pH 6.5 and 290 mOsm/kg was added to each respective tube. The samples were quickly mixed using a vortex mixer for about 60 seconds. The samples were centrifuged at 13,000 G at 37° C. for 1 minute prior to collecting a sample. The resulting supernatant solution was then sampled and diluted 1:5 (by volume) with methanol. Samples were analyzed by high-performance liquid chromatography (HPLC) at a UV absorbance of 315 nm using a Zorbax RxC8 Reliance column and a mobile phase consisting of 55% (50 mM potassium dihydrogen phosphate, pH 6.5)/45% acetonitrile. Drug concentration was calculated by comparing UV absorbance of samples to the absorbance of drug standards. The contents of each tube were mixed on the vortex mixer and allowed to stand undisturbed at 37° C. until the next sample was taken. Samples were collected at 4, 10, 20, 40, 90, and 1200 minutes following administration to the MFD solution.
A similar test was performed with the crystalline ziprasidone free base as a control, and a sufficient amount of material was added so that the concentration of compound would have been 200 μgA/mL, if all of the ziprasidone had dissolved.
The concentrations of ziprasidone obtained in these tests were used to determine the maximum dissolved concentration of ziprasidone (“MDC90”) and the area under the concentration-versus-time curve (“AUC90”) during the initial ninety minutes.

[4] = Solubility in water; type: physicochemical; conditions: expressed as the free base, listed as free base form
Description: as §1

Ziprasidone Concentration in Permeate ([1]; 0 min): 0.0 μgA/mL
Maximum Flux of Ziprasidone [1]: 0.07 μgA/cm^2-min
Ziprasidone Concentration in Permeate ([1]; 20 min): 0.0 μgA/mL
Ziprasidone Concentration in Permeate ([1]; 40 min): 3.3 μgA/mL
Ziprasidone Concentration in Permeate ([1]; 60 min): 3.4 μgA/mL
Ziprasidone Concentration in Permeate ([1]; 90 min): 5.4 μgA/mL
Ziprasidone Concentration in Permeate ([1]; 120 min): 6.8 μgA/mL
Ziprasidone Concentration in Permeate ([1]; 180 min): 9.2 μgA/mL
Ziprasidone Concentration in Permeate ([1]; 245 min): 11.5 μgA/mL
Ziprasidone Concentration in Permeate ([1]; 360 min): 14.7 μgA/mL
equilibrium solubility [2]: about 0.2 μgA/mL
Dissolved Ziprasidone Concentration ([3]; time 4 min): 1 μgA/mL
Dissolved Ziprasidone Concentration ([3]; time 10 min): 1 μgA/mL
Dissolved Ziprasidone Concentration ([3]; time 20 min): 1 μgA/mL
Dissolved Ziprasidone Concentration ([3]; time 40 min): 2 μgA/mL
Dissolved Ziprasidone Concentration ([3]; time 90 min): 1 μgA/mL
Dissolved Ziprasidone Concentration ([3]; time 1200 min): 2 μgA/mL
AUC ([3]; up to time 4 min): 3 min-μgA/mL
AUC ([3]; up to time 10 min): 11 min-μgA/mL
AUC ([3]; up to time 20 min): 23 min-μgA/mL
AUC ([3]; up to time 40 min): 51 min-μgA/mL
AUC ([3]; up to time 90 min): 120 min-μgA/mL
AUC ([3]; up to time 1200 min): 2000 min-μgA/mL
AUC90 ([3]; area under the concentration-versus-time curve during the initial ninety minutes, MFD solution): 120 min·µgA/mL
MDC90 ([3]; maximum dissolved concentration during the initial ninety minutes, MFD solution): 2 µgA/mL
solubility in water [4]: less than 0.2 μgA/mL
Structure (SMILES): O=C1Cc2cc(CCN3CCN(c4nsc5ccccc45)CC3)c(Cl)cc2N1 [Ziprasidone Free Base, ziprasidone]
